Non-standard residues stand in square brackets, D forms with d. Residues, ends and D or L forms follow the SMILES beside them. Cit = NC(=O)NCCC[C@H](N)C(=O)O; Tle = CC(C)(C)[C@H](N)C(=O)O; Nva = CCC[C@H](N)C(=O)O; Abu = CC[C@H](N)C(=O)O
Target: Beta-secretase 1 (Homo sapiens) (UniProt P56817)
Test: Activity of recombinant BACE assessed as retention time of substrate by HPLC method

Chain of Beta-secretase 1 (Homo sapiens) (P56817 whole entry): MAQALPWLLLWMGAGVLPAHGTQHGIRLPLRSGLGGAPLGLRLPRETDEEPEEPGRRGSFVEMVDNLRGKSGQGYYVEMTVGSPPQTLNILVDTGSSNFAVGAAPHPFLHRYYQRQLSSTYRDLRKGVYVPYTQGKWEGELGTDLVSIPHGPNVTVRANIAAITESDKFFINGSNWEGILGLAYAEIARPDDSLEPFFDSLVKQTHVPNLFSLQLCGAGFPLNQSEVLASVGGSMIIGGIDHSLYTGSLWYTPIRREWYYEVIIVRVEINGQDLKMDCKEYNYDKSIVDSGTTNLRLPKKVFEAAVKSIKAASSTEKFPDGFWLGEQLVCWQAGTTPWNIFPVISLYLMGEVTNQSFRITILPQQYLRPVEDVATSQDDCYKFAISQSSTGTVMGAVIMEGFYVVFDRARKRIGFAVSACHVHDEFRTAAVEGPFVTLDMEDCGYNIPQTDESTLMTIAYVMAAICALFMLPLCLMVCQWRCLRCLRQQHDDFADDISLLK

CC[C@H](NC(=O)[C@H](CCC(=O)O)NC(=O)[C@H](CO)NC(=O)[C@@H](N)[C@@H](C)CC)C(=O)N[C@@H](CC(N)=O)C(=O)N[C@@H](CC(C)C)C(=O)N[C@@H](CC(=O)O)C(=O)N[C@@H](C)C(=O)N[C@@H](CCC(=O)O)C(=O)N[C@@H](Cc1ccccc1)C(=O)N[C@@H](CCCNC(=N)N)C(=O)N[C@@H](Cc1cnc[nH]1)C(N)=O (H-ISE[Abu]NLDAEFRH-NH2)
retention time: 0.47 h

CC[C@H](C)[C@H](N)C(=O)N[C@@H](CO)C(=O)N[C@@H](CCC(=O)O)C(=O)N[C@H](C(=O)N[C@@H](CC(N)=O)C(=O)N[C@@H](Cc1ccc(O)cc1)C(=O)N[C@@H](CC(=O)O)C(=O)N[C@@H](C)C(=O)N[C@@H](CCC(=O)O)C(=O)N[C@@H](Cc1ccccc1)C(=O)N[C@@H](CCCNC(=N)N)C(=O)N[C@@H](Cc1cnc[nH]1)C(N)=O)C(C)C (H-ISEVNYDAEFRH-NH2)
retention time: 0.42 h

CC[C@H](C)[C@H](N)C(=O)N[C@@H](CO)C(=O)N[C@H](C(=O)N[C@H](C(=O)N[C@@H](CC(N)=O)C(=O)N[C@@H](CC(C)C)C(=O)N[C@@H](CC(=O)O)C(=O)N[C@@H](C)C(=O)N[C@@H](CCC(=O)O)C(=O)N[C@@H](Cc1ccccc1)C(=O)N[C@@H](CCCNC(=N)N)C(=O)N[C@@H](Cc1cnc[nH]1)C(N)=O)C(C)C)C(C)(C)C (H-IS[Tle]VNLDAEFRH-NH2)
retention time: 0.588 h

CC[C@H](C)[C@H](N)C(=O)N[C@@H](CO)C(=O)N[C@@H](CCC(=O)O)C(=O)N[C@H](C(=O)N[C@@H](CC(N)=O)C(=O)N[C@@H](CC(C)C)C(=O)N[C@@H](CCC(N)=O)C(=O)N[C@@H](C)C(=O)N[C@@H](CCC(=O)O)C(=O)N[C@@H](Cc1ccccc1)C(=O)N[C@@H](CCCNC(=N)N)C(=O)N[C@@H](Cc1cnc[nH]1)C(N)=O)C(C)C (H-ISEVNLQAEFRH-NH2)
retention time: 0.52 h

CC[C@H](NC(=O)[C@H](CO)NC(=O)[C@@H](N)[C@@H](C)CC)C(=O)N[C@H](C(=O)N[C@@H](CC(N)=O)C(=O)N[C@@H](CC(C)C)C(=O)N[C@@H](CC(=O)O)C(=O)N[C@@H](C)C(=O)N[C@@H](CCC(=O)O)C(=O)N[C@@H](Cc1ccccc1)C(=O)N[C@@H](CCCNC(=N)N)C(=O)N[C@@H](Cc1cnc[nH]1)C(N)=O)C(C)C (H-IS[Abu]VNLDAEFRH-NH2)
retention time: 0.528 h

CCC[C@H](N)C(=O)N[C@@H](C)C(=O)N[C@@H](CCC(=O)O)C(=O)N[C@@H](Cc1ccccc1)C(=O)N[C@@H](CCCNC(=N)N)C(=O)N[C@@H](Cc1cnc[nH]1)C(N)=O (H-[Nva]AEFRH-NH2)
retention time: 0.269 h

CC[C@H](C)[C@H](N)C(=O)N[C@@H](CO)C(=O)N[C@@H](CC(=O)O)C(=O)N[C@H](C(=O)N[C@@H](CC(N)=O)C(=O)N[C@@H](CC(C)C)C(=O)N[C@@H](CC(=O)O)C(=O)N[C@@H](C)C(=O)N[C@@H](CCC(=O)O)C(=O)N[C@@H](Cc1ccccc1)C(=O)N[C@@H](CCCNC(=N)N)C(=O)N[C@@H](Cc1cnc[nH]1)C(N)=O)C(C)C (H-ISDVNLDAEFRH-NH2)
retention time: 0.474 h

CC[C@H](C)[C@H](N)C(=O)N[C@@H](CO)C(=O)N[C@@H](CCC(=O)O)C(=O)N[C@H](C(=O)N[C@@H](Cc1ccccc1)C(=O)N[C@@H](CC(C)C)C(=O)N[C@@H](CC(=O)O)C(=O)N[C@@H](C)C(=O)N[C@@H](CCC(=O)O)C(=O)N[C@@H](Cc1ccccc1)C(=O)N[C@@H](CCCNC(=N)N)C(=O)N[C@@H](Cc1cnc[nH]1)C(N)=O)C(C)C (H-ISEVFLDAEFRH-NH2)
retention time: 0.565 h

CC[C@H](C)[C@H](N)C(=O)N[C@@H](CO)C(=O)N[C@@H](CCC(=O)O)C(=O)N[C@H](C(=O)N[C@@H](CCCNC(N)=O)C(=O)N[C@@H](CC(C)C)C(=O)N[C@@H](CC(=O)O)C(=O)N[C@@H](C)C(=O)N[C@@H](CCC(=O)O)C(=O)N[C@@H](Cc1ccccc1)C(=O)N[C@@H](CCCNC(=N)N)C(=O)N[C@@H](Cc1cnc[nH]1)C(N)=O)C(C)C (H-ISEV[Cit]LDAEFRH-NH2)
retention time: 0.482 h

— ChEMBL document CHEMBL1773037, “Evaluation of superior BACE1 cleavage sequences containing unnatural amino acids” (Bioorg Med Chem, 2011)
